Laboratory results as given in the supplement of paper PMC9663587.

Assays:
Assay in all cases: GR value, 72 h; higher = faster growth (1 = untreated, <0 = killing);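 also: breast cancer and non-malignant breast epithelial lines, nine half-log doses, viable cells counted by Hoechst and LIVE/DEAD dye imaging versus time-zero plates and DMSO controls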
AZD1775 = compound: C=CCn1c(=O)c2cnc(Nc3ccc(N4CCN(C)CC4)cc3)nc2n1-c1cccc(C(C)(C)O)n1 [AZD1775]
Rucaparib = compound: CNCc1ccc(-c2[nH]c3cc(F)cc4c3c2CCNC4=O)cc1 [Rucaparib]
AZD5363 = compound: NC1(C(=O)N[C@@H](CCO)c2ccc(Cl)cc2)CCN(c2nc[nH]c3nccc2-3)CC1 [AZD5363]
Tivantinib/ARQ197 = compound: O=C1NC(=O)[C@@H](c2cn3c4c(cccc24)CCC3)[C@@H]1c1c[nH]c2ccccc12 [Tivantinib/ARQ197]
ABT-737 = compound: CN(C)CC[C@H](CSc1ccccc1)Nc1ccc(S(=O)(=O)NC(=O)c2ccc(N3CCN(Cc4ccccc4-c4ccc(Cl)cc4)CC3)cc2)cc1[N+](=O)[O-] [ABT-737]
Pictilisib/GDC0941 = compound: CS(=O)(=O)N1CCN(Cc2cc3nc(-c4cccc5[nH]ncc45)nc(N4CCOCC4)c3s2)CC1 [Pictilisib/GDC0941]
Doxorubicin = compound: COc1cccc2c1C(=O)c1c(O)c3c(c(O)c1C2=O)C[C@@](O)(C(=O)CO)C[C@@H]3O[C@H]1C[C@H](N)[C@H](O)[C@H](C)O1 [Doxorubicin]
Taselisib/GDC0032 = compound: Cc1nc(-c2cn3c(n2)-c2ccc(-c4cnn(C(C)(C)C(N)=O)c4)cc2OCC3)n(C(C)C)n1 [Taselisib/GDC0032]
BSJ-01-175 = compound: CN(C)C/C=C/C(=O)Nc1ccc(O[C@@H]2CCC[C@@H](Nc3ncc(Cl)c(-c4c[nH]c5ccccc45)n3)C2)cc1 [BSJ-01-175]
AZD2014 = compound: CNC(=O)c1cccc(-c2ccc3c(N4CCOC[C@@H]4C)nc(N4CCOC[C@@H]4C)nc3n2)c1 [AZD2014]
Dasatinib = compound: Cc1nc(Nc2ncc(C(=O)Nc3c(C)cccc3Cl)s2)cc(N2CCN(CCO)CC2)n1 [Dasatinib]
Saracatinib/AZD0530 = compound: CN1CCN(CCOc2cc(OC3CCOCC3)c3c(Nc4c(Cl)ccc5c4OCO5)ncnc3c2)CC1 [Saracatinib/AZD0530]

AU565 gave a GR value (AZD1775; 0.001 µM) of 0.879 GR, a GR value (AZD1775; 0.003162 µM) of 0.913 GR and a GR value (AZD1775; 0.01 µM) of 0.779 GR. It also gave a GR value (AZD1775; 0.03162 µM) of 0.585 GR, a GR value (AZD1775; 0.1 µM) of 0.612 GR and a GR value (AZD1775; 0.3162 µM) of 0.521 GR. For the same cell line, the GR value (AZD1775; 1 µM) was 0.288 GR, the GR value (AZD1775; 3.162 µM) was 0.207 GR and the GR value (AZD1775; 10 µM) was -0.514 GR. It also gave a GR value (Rucaparib; 0.001 µM) of 0.952 GR, a GR value (Rucaparib; 0.003162 µM) of 1.09 GR and a GR value (Rucaparib; 0.01 µM) of 0.804 GR. It also gave a GR value (Rucaparib; 0.03162 µM) of 0.916 GR, a GR value (Rucaparib; 0.1 µM) of 0.925 GR and a GR value (Rucaparib; 0.3162 µM) of 0.845 GR. For the same cell line, the GR value (Rucaparib; 1 µM) was 1.01 GR, the GR value (Rucaparib; 3.162 µM) was 0.932 GR and the GR value (Rucaparib; 10 µM) was 0.714 GR. It also gave a GR value (AZD5363; 0.001 µM) of 1.15 GR, a GR value (AZD5363; 0.003162 µM) of 0.991 GR and a GR value (AZD5363; 0.01 µM) of 0.884 GR. For the same cell line, the GR value (AZD5363; 0.03162 µM) was 0.793 GR, the GR value (AZD5363; 0.1 µM) was 0.786 GR and the GR value (AZD5363; 0.3162 µM) was 0.717 GR. The GR value (AZD5363; 1 µM) was 0.655 GR, the GR value (AZD5363; 3.162 µM) was 0.682 GR and the GR value (AZD5363; 10 µM) was 0.399 GR. For the same cell line, the GR value (Tivantinib/ARQ197; 0.001 µM) was 1.08 GR, the GR value (Tivantinib/ARQ197; 0.003162 µM) was 1.04 GR and the GR value (Tivantinib/ARQ197; 0.01 µM) was 1.1 GR. It also gave a GR value (Tivantinib/ARQ197; 0.03162 µM) of 1.03 GR, a GR value (Tivantinib/ARQ197; 0.1 µM) of 0.841 GR and a GR value (Tivantinib/ARQ197; 0.3162 µM) of 0.191 GR. For the same cell line, the GR value (Tivantinib/ARQ197; 1 µM) was -0.542 GR, the GR value (Tivantinib/ARQ197; 3.162 µM) was -0.468 GR and the GR value (Tivantinib/ARQ197; 10 µM) was -0.479 GR. It also gave a GR value (ABT-737; 0.001 µM) of 0.926 GR, a GR value (ABT-737; 0.003162 µM) of 1.05 GR and a GR value (ABT-737; 0.01 µM) of 1.03 GR. It also gave a GR value (ABT-737; 0.03162 µM) of 1.04 GR, a GR value (ABT-737; 0.1 µM) of 1.04 GR and a GR value (ABT-737; 0.3162 µM) of 1.02 GR. It also gave a GR value (ABT-737; 1 µM) of 0.957 GR, a GR value (ABT-737; 3.162 µM) of 0.86 GR and a GR value (ABT-737; 10 µM) of 0.279 GR. For the same cell line, the GR value (Pictilisib/GDC0941; 0.001 µM) was 0.964 GR, the GR value (Pictilisib/GDC0941; 0.003162 µM) was 0.961 GR and the GR value (Pictilisib/GDC0941; 0.01 µM) was 0.898 GR. For the same cell line, the GR value (Pictilisib/GDC0941; 0.03162 µM) was 0.642 GR, the GR value (Pictilisib/GDC0941; 0.1 µM) was 0.37 GR and the GR value (Pictilisib/GDC0941; 0.3162 µM) was 0.101 GR. For the same cell line, the GR value (Pictilisib/GDC0941; 1 µM) was -0.096 GR, the GR value (Pictilisib/GDC0941; 3.162 µM) was -0.251 GR and the GR value (Pictilisib/GDC0941; 10 µM) was -0.391 GR. It also gave a GR value (Doxorubicin; 0.0003162 µM) of 1.09 GR, a GR value (Doxorubicin; 0.001 µM) of 1.03 GR and a GR value (Doxorubicin; 0.003162 µM) of 1.05 GR. The GR value (Doxorubicin; 0.01 µM) was 1.01 GR, the GR value (Doxorubicin; 0.03162 µM) was 0.553 GR and the GR value (Doxorubicin; 0.1 µM) was -0.11 GR. For the same cell line, the GR value (Doxorubicin; 0.3162 µM) was -0.234 GR, the GR value (Doxorubicin; 1 µM) was -0.385 GR and the GR value (Doxorubicin; 3.162 µM) was -0.452 GR. The GR value (Taselisib/GDC0032; 0.001 µM) was 0.728 GR, the GR value (Taselisib/GDC0032; 0.003162 µM) was 0.58 GR and the GR value (Taselisib/GDC0032; 0.01 µM) was 0.208 GR. For the same cell line, the GR value (Taselisib/GDC0032; 0.03162 µM) was -0.0424 GR, the GR value (Taselisib/GDC0032; 0.1 µM) was -0.111 GR and the GR value (Taselisib/GDC0032; 0.3162 µM) was -0.171 GR. The GR value (Taselisib/GDC0032; 1 µM) was -0.209 GR, the GR value (Taselisib/GDC0032; 3.162 µM) was -0.225 GR and the GR value (Taselisib/GDC0032; 10 µM) was -0.538 GR. The GR value (BSJ-01-175; 0.001 µM) was 0.954 GR, the GR value (BSJ-01-175; 0.003162 µM) was 0.82 GR and the GR value (BSJ-01-175; 0.01 µM) was 0.24 GR. It also gave a GR value (BSJ-01-175; 0.03162 µM) of -0.144 GR, a GR value (BSJ-01-175; 0.1 µM) of -0.164 GR and a GR value (BSJ-01-175; 0.3162 µM) of -0.381 GR. For the same cell line, the GR value (BSJ-01-175; 1 µM) was -0.45 GR, the GR value (BSJ-01-175; 3.162 µM) was -0.505 GR and the GR value (BSJ-01-175; 10 µM) was -0.777 GR. It also gave a GR value (AZD2014; 0.001 µM) of 0.592 GR, a GR value (AZD2014; 0.003162 µM) of 0.509 GR and a GR value (AZD2014; 0.01 µM) of 0.415 GR. The GR value (AZD2014; 0.03162 µM) was 0.249 GR, the GR value (AZD2014; 0.1 µM) was 0.219 GR and the GR value (AZD2014; 0.3162 µM) was 0.149 GR. It also gave a GR value (AZD2014; 1 µM) of 0.106 GR, a GR value (AZD2014; 3.162 µM) of -0.0159 GR and a GR value (AZD2014; 10 µM) of -0.0097 GR. For the same cell line, the GR value (Dasatinib; 0.001 µM) was 0.873 GR, the GR value (Dasatinib; 0.003162 µM) was 0.908 GR and the GR value (Dasatinib; 0.01 µM) was 0.966 GR. For the same cell line, the GR value (Dasatinib; 0.03162 µM) was 0.961 GR, the GR value (Dasatinib; 0.1 µM) was 0.877 GR and the GR value (Dasatinib; 0.3162 µM) was 0.963 GR. For the same cell line, the GR value (Dasatinib; 1 µM) was 0.875 GR, the GR value (Dasatinib; 3.162 µM) was 0.73 GR and the GR value (Dasatinib; 10 µM) was 0.274 GR. For the same cell line, the GR value (Saracatinib/AZD0530; 0.001 µM) was 1 GR, the GR value (Saracatinib/AZD0530; 0.003162 µM) was 1.03 GR and the GR value (Saracatinib/AZD0530; 0.01 µM) was 0.984 GR. It also gave a GR value (Saracatinib/AZD0530; 0.03162 µM) of 1.03 GR, a GR value (Saracatinib/AZD0530; 0.1 µM) of 0.952 GR and a GR value (Saracatinib/AZD0530; 0.3162 µM) of 0.942 GR. The GR value (Saracatinib/AZD0530; 1 µM) was 0.86 GR, the GR value (Saracatinib/AZD0530; 3.162 µM) was 0.671 GR and the GR value (Saracatinib/AZD0530; 10 µM) was 0.162 GR.
